Data published in patent US7435837B2, “Dihydrobenzofuranyl alkanamine derivatives and methods for using same” (Wyeth, priority 2003, dated 2008).

Molecular target: T1, human 5-hydroxytryptamine-2C (h5-HT2C) receptor (Homo sapiens, UniProt P28335)
T1 construct: expressed in transfected cells; host or cells: CHO (Chinese Hamster Ovary) cells; membranes
T1 sequence (P28335 33-458): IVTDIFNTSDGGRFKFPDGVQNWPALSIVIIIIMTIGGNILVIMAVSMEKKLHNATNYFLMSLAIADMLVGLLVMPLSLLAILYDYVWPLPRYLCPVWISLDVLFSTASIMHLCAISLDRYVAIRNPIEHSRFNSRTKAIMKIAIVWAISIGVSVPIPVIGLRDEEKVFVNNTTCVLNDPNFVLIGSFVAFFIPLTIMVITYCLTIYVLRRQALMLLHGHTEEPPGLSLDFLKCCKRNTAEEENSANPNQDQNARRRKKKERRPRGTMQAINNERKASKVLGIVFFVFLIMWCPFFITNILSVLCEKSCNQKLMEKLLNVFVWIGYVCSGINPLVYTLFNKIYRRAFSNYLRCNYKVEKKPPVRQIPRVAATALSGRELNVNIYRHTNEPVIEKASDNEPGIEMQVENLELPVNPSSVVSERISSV
Experiment: [125I]DOI binding to membranes of CHO cells expressing the human 5-HT2C receptor
Details: [125I]DOI radioligand, CHO cell membranes, room temperature 60 min; read-out: 5-HT2C Affinity Ki

Row | SMILES | Ki [nM]
1 | NCC1Cc2c(C(F)(F)F)ccc(Cl)c2O1 (racemic) [Example 14, (±)-[7-chloro-4-(trifluoromethyl)-2,3-dihydro-1-benzofuran-2-yl]methanamine] | 78
2 | NCC1Cc2cccc(-c3cc(C(F)(F)F)cc(C(F)(F)F)c3)c2O1 (racemic) [Example 32, (±)-1-{7-[3,5-bis(trifluoromethyl)phenyl]-2,3-dihydro-1-benzofuran-2-yl}methanamine] | 419
3 | NCC1Cc2cccc(Nc3cc(F)cc(F)c3)c2O1 (racemic) [Example 186, (±)-N-[2-(aminomethyl)-2,3-dihydro-1-benzofuran-7-yl]-N-(3,5-difluorophenyl)amine] | 171
4 | NCC1Cc2cccc(-c3cccc(C(F)(F)F)c3)c2O1 (single isomer, unassigned; (-)) [Example 135, (−)-1-{7-[3-(trifluoromethyl)phenyl]-2,3-dihydro-1-benzofuran-2-yl}methanamine] | 131
5 | NCC1Cc2cccc(Nc3cccc(Cl)c3)c2O1 (racemic) [Example 190, (±)-N-[2-(aminomethyl)-2,3-dihydro-1-benzofuran-7-yl]-N-(3-chlorophenyl)amine] | 186
6 | NCC1Cc2cc(Cl)cc(-c3cccc(Cl)c3)c2O1 (racemic) [Example 89, (±)-1-[5-chloro-7-(3-chlorophenyl)-2,3-dihydro-1-benzofuran-2-yl]methanamine] | 40
7 | CC1(CN)Cc2cc(Cl)cc(-c3cccs3)c2O1 (racemic) [Example 114, (±)-(5-chloro-2-methyl-7-thien-2-yl-2,3-dihydro-1-benzofuran-2-yl)methylamine] | 471
8 | Cc1ccc(Nc2cccc3c2OC(CN)C3)cc1C (racemic) [Example 181, (±)-N-[2-(aminomethyl)-2,3-dihydro-1-benzofuran-7-yl]-N-(3,4-dimethylphenyl)amine] | 146
9 | COc1cc2c(c(C(C)(C)C)c1)OC(CN)C2 (single isomer, unassigned; (+)) [Example 116, (+)-1-(7-tert-butyl-5-methoxy-2,3-dihydro-1-benzofuran-2-yl)methanamine] | 527
10 | Cc1ccc(Nc2cccc3c2OC(CN)C3)cc1 (racemic) [Example 174, (±)-N-[2-(aminomethyl)-2,3-dihydro-1-benzofuran-7-yl]-N-(4-methylphenyl)amine] | 203
11 | NCC1Cc2cccc(-c3ccccc3F)c2O1 (single isomer, unassigned; (-)) [Example 52, (−)-1-[7-(2-fluorophenyl)-2,3-dihydro-1-benzofuran-2-yl]methanamine] | 13
12 | COc1cccc2c1OC(CN)C2 (racemic) [Example 7, (±)-1-(7-methoxy-2,3-dihydro-1-benzofuran-2-yl)methanamine] | 160
13 | CC(C)(C)CCc1cccc2c1OC(CN)C2 (racemic) [Example 118, (±)-1-[7-(3,3-dimethylbutyl)-2,3-dihydro-1-benzofuran-2-yl]methanamine] | 319
14 | NCC1Cc2cccc(Nc3ccc(Cl)cc3)c2O1 (racemic) [Example 175, (±)-N-[2-(aminomethyl)-2,3-dihydro-1-benzofuran-7-yl]-N-(4-chlorophenyl)amine] | 384
15 | NCC1Cc2cccc(-c3cc(Cl)cc(Cl)c3)c2O1 (racemic) [Example 35, (±)-1-[7-(3,5-dichlorophenyl)-2,3-dihydro-1-benzofuran-2-yl]methanamine] | 141
16 | NCC1Cc2cccc(-c3ccc(F)cc3)c2O1 (single isomer, unassigned; (-)) [Example 75, (−)-1-[7-(4-fluorophenyl)-2,3-dihydro-1-benzofuran-2-yl]methanamine] | 103

More lines, now with the values ahead:

Row | Ki [nM] | SMILES
17 | 194 | NCC1Cc2cc(-c3ccccc3F)cc(F)c2O1 (racemic) [Example 377, (±)-{[7-fluoro-5-(2-fluorophenyl)-2,3-dihydro-1-benzofuran-2-yl]methyl}amine]
18 | 801 | NCC1Cc2cc(-c3cccc(Cl)c3)cc(F)c2O1 (racemic) [Example 382, (±)-{[7-fluoro-5-(3-chlorophenyl)-2,3-dihydro-1-benzofuran-2-yl]methyl}amine]
19 | 108 | NCC1Cc2cc(F)cc(-c3cccc(F)c3)c2O1 (racemic) [Example 196, (±)-{[5-fluoro-7-(3-fluorophenyl)-2,3-dihydro-1-benzofuran-2-yl]methyl}amine]
20 | 61 | Cc1cccc(-c2cc(C(F)(F)F)cc3c2OC(CN)C3)c1C (racemic) [Example 328, (±)-{[7-(2,3-dimethylphenyl)-5-(trifluoromethyl)-2,3-dihydro-1-benzofuran-2-yl]methyl}amine]
21 | 1150 | CNCC1Cc2cc(-c3ccccc3)cc(-c3ccc(C)cc3)c2O1 (racemic) [Example 513, (±)-{[7-(4-methylphenyl)-5-phenyl-2,3-dihydro-1-benzofuran-2-yl]methyl}methylamine]
22 | 2.3 | CCNC[C@H]1Cc2cc(F)cc(-c3c(Cl)cccc3Cl)c2O1 [Example 546, (R)-[7-(2,6-dichloro-phenyl)-5-fluoro-2,3-dihydro-benzofuran-2-ylmethyl]ethylamine]
23 | 246 | CNCC1Cc2cc(C(F)(F)F)cc(-c3cccc(F)c3F)c2O1 (racemic) [Example 521, (±)-N-methyl-1-[7-(2,3-difluorophenyl)-5-(trifluoromethyl)-2,3-dihydro-1-benzofuran-2-yl]methanamine]
24 | 760 | NCC1Cc2cc(-c3ccccc3)cc(-c3cccc(F)c3)c2O1 (racemic) [Example 349, (±)-{[7-(3-fluorophenyl)-5-phenyl-2,3-dihydro-1-benzofuran-2-yl]methyl}amine]
25 | 127 | NCC1Cc2cccc(Nc3ccccc3F)c2O1 (racemic) [Example 194, (±)-N-[2-(aminomethyl)-2,3-dihydro-1-benzofuran-7-yl]-N-(2-fluorophenyl)amine]
26 | 1050 | CNCC1Cc2cc(-c3cccc(Cl)c3)cc(F)c2O1 (racemic) [Example 534, (±)-{7-fluoro-5-[3-chlorophenyl]-2,3-dihydro-1-benzofuran-2-yl}methyl)methylamine]
27 | 98 | NCC1Cc2cc(-c3ccccc3)cc(-c3ccccc3Cl)c2O1 (racemic) [Example 345, (±)-{[7-(2-chlorophenyl)-5-phenyl-2,3-dihydro-1-benzofuran-2-yl]methyl}amine]
28 | 1580 | CNCC1Cc2cc(-c3ccccc3)cc(-c3ccc(OC)cc3)c2O1 (racemic) [Example 516, (±)-{[7-(4-methoxyphenyl)-5-phenyl-2,3-dihydro-1-benzofuran-2-yl]methyl}methylamine]
29 | 161 | Cc1ccc(-c2cc(C(F)(F)F)cc3c2OC(CN)C3)cc1 (racemic) [Example 323, (±)-{[5-(trifluoromethyl)-7-(4-methylphenyl)-2,3-dihydro-1-benzofuran-2-yl]methyl}amine]
30 | 385 | NCC1Cc2cc(-c3ccccc3)cc(-c3cc(Cl)ccc3Cl)c2O1 (racemic) [Example 355, (±)-{[7-(2,5-dichlorophenyl)-5-phenyl-2,3-dihydro-1-benzofuran-2-yl]methyl}amine]
31 | 1600 | CNCC1Cc2cc(-c3ccccc3)cc(-c3cccc(Cl)c3)c2O1 (racemic) [Example 506, (±)-{[7-(3-chlorophenyl)-5-phenyl-2,3-dihydro-1-benzofuran-2-yl]methyl}methylamine]
32 | 923 | NCC1Cc2cc(-c3cccc(F)c3)cc(F)c2O1 (racemic) [Example 381, (±)-{[7-fluoro-5-(3-fluorophenyl)-2,3-dihydro-1-benzofuran-2-yl]methyl}amine]
33 | 316 | CNCC1Cc2cc(-c3ccc(C(F)(F)F)cc3)cc(F)c2O1 (racemic) [Example 541, (±)-{7-fluoro-5-[4-(trifluoromethyl)phenyl]-2,3-dihydro-1-benzofuran-2-yl}methyl)methylamine]
34 | 87 | Cc1ccccc1-c1cc(-c2ccccc2)cc2c1OC(CN)C2 (racemic) [Example 351, (±)-{[7-(2-methylphenyl)-5-phenyl-2,3-dihydro-1-benzofuran-2-yl]methyl}amine]
35 | 488 | CNCC1Cc2cc(C(F)(F)F)cc(-c3cccc(C)c3)c2O1 (racemic) [Example 519, (±)-N-methyl-1-[7-(3-methylphenyl)-5-(trifluoromethyl)-2,3-dihydro-1-benzofuran-2-yl]methanamine]
36 | 1.6 | Cc1ccccc1-c1c(F)ccc2c1OC(CN)C2 (single isomer, unassigned; (-)) [Example 397, (−)-{[6-fluoro-7-(2-methylphenyl)-2,3-dihydro-1-benzofuran-2-yl]methyl}amine]
37 | 1580 | NCC1Cc2cc(-c3ccc(C(F)(F)F)cc3)cc(F)c2O1 (racemic) [Example 388, (±)-({7-fluoro-5-[4-(trifluoromethyl)phenyl]-2,3-dihydro-1-benzofuran-2-yl}methyl)amine]

Molecular target: T2, human 5-HT2C receptor (Homo sapiens, UniProt P28335)
T2 sequence (P28335 33-458): T1 sequence (P28335 33-458)
Experiment: 5-HT2C receptor-stimulated calcium mobilization (FLIPR) in CHO cells;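 note: Fluo-3-AM fluorescence read on FLIPR every 1 s, agonist added after 10 baseline reads, response taken as peak minus lowest raw fluorescence count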
Type: cell-based
Details: calcium mobilization, CHO cells stably expressing human 5-HT2C; read-out: 5-HT2C Function EC50

Row | SMILES | EC50 [nM]
38 | CNCC1Cc2cc(F)cc(-c3c(Cl)cccc3Cl)c2O1 (single isomer, unassigned; (+)) [Example 543, (+){[7-(2,6-dichlorophenyl)-5-fluoro-2,3-dihydro-1-benzofuran-2-yl]methyl}methylamine] | 0.2

Same assay, conditions: percentage of the response observed with a maximally effective concentration of 5-HT

Row | SMILES | 5-HT2C Function Emax (%)
39 | CNCC1Cc2cc(F)cc(-c3c(Cl)cccc3Cl)c2O1 (single isomer, unassigned; (+)) [Example 543, (+){[7-(2,6-dichlorophenyl)-5-fluoro-2,3-dihydro-1-benzofuran-2-yl]methyl}methylamine] | 100
